Measured values as given in patent publication US20170121319A1, “Herbicidal Compounds” (Syngenta Participations AG, priority 2014, published 2017).

Legend:
Format in all cases: in vivo
Set-up in all cases: key: 5=total damage to plant; 0=no damage to plant
[1] = system: ABUTH = Abutilon theophrasti; test: Pre-emergence herbicidal activity, glasshouse pot test
Method: (§1) Seeds of a variety of test species were sown in standard soil in pots. After cultivation for one day (pre-emergence) under controlled conditions in a glasshouse (at 24/16° C., day/night; 14 hours light; 65% humidity), the plants were sprayed with an aqueous spray solution derived from the formulation of the technical active ingredient in acetone/water (50:50) solution containing 0.5% Tween 20 (polyoxyethelyene sorbitan monolaurate, CAS RN 9005-64-5). The test plants were then grown in a glasshouse under controlled conditions (at 24/16° C., day/night; 14 hours light; 65% humidity) and watered twice daily. After 13 days, the test was evaluated (5=total damage to plant; 0=no damage to plant). Pre- and post-emergence testing was carried out as detailed above on the compounds A1, A2, A4 and A5 and their respective S-enantiomers.

[2] = system: AMARE = Amaranthus retroflexus; test: as above
Method: as §1

[3] = system: ECHCG = Echinochloa crus-galli; test: as above
Method: as §1

LOLPE [4] = test: as above; settings: comparison of enantiomers
Method: as §1

SETFA = Setaria faberi [5] = test: as above; settings: for SEFTA damage score (0-5): comparison of enantiomers
Method: as §1

ZEAMX = Zea mays [6] = test: as above
Method: as §1

[7] = system: ABUTH = Abutilon theophrasti; test: Post-emergence herbicidal activity, glasshouse pot test
Method: (§2) Seeds of a variety of test species were sown in standard soil in pots. After 8 days cultivation (post-emergence) under controlled conditions in a glasshouse (at 24/16° C., day/night; 14 hours light; 65% humidity), the plants were sprayed with an aqueous spray solution derived from the formulation of the technical active ingredient in acetone/water (50:50) solution containing 0.5% Tween 20 (polyoxyethelyene sorbitan monolaurate, CAS RN 9005-64-5). The test plants were then grown in a glasshouse under controlled conditions (at 24/16° C., day/night; 14 hours light; 65% humidity) and watered twice daily. After 13 days, the test was evaluated (5=total damage to plant; 0=no damage to plant). Pre- and post-emergence testing was carried out as detailed above on the compounds A1, A2, A4 and A5 and their respective S-enantiomers.

[8] = system: AMARE = Amaranthus retroflexus; test: as above
Method: as §2

[9] = system: ECHCG = Echinochloa crus-galli; test: as above
Method: as §2

LOLPE [10] = test: as above; settings: comparison of enantiomers
Method: as §2

SETFA = Setaria faberi [11] = test: as above; settings: for SEFTA damage score (0-5): comparison of enantiomers
Method: as §2

ZEAMX = Zea mays [12] = test: as above
Method: as §2

[13] = comparison of enantiomers, 62.5 g/Ha
[14] = comparison of enantiomers, 250 g/Ha
[15] = 1000 g/Ha, evaluated after 13 days

SMILES | ABUTH damage score (0-5) [1, 13] | ABUTH damage score (0-5) [1, 14] | AMARE damage score (0-5) [2, 13] | AMARE damage score (0-5) [2, 14] | ECHCG damage score (0-5) [3, 13] | ECHCG damage score (0-5) [3, 14] | LOLPE damage score (0-5) (LOLPE [4]; 62.5 g/Ha) | SEFTA damage score (0-5) (SETFA = Setaria faberi [5]; 250 g/Ha) | ZEAMX damage score (0-5) (ZEAMX = Zea mays [6]; [13]) | ZEAMX damage score (0-5) (ZEAMX = Zea mays [6]; [14]) | ABUTH damage score (0-5) [7, 13] | ABUTH damage score (0-5) [7, 14] | AMARE damage score (0-5) [8, 13] | AMARE damage score (0-5) [8, 14] | ECHCG damage score (0-5) [9, 13] | ECHCG damage score (0-5) [9, 14] | LOLPE damage score (0-5) (LOLPE [10]; 62.5 g/Ha) | LOLPE damage score (0-5) (LOLPE [10]; 250 g/Ha) | SEFTA damage score (0-5) (SETFA = Setaria faberi [11]; 62.5 g/Ha) | ZEAMX damage score (0-5) (ZEAMX = Zea mays [12]; [14]) | also measured
CCO[C@H]1C(O)N(c2cc(C(C)(C)C)on2)C(=O)N1C (single isomer, unassigned) [A2 S-enantiomer, reference compound] | 1 | 1 | 5 | 5 | 0 | 3 | 1 | 0 | 1 | 1 | 1 | 1 | 5 | 5 | 0 | 1 | 0 | 1 | 0 | 1 | 
CCO[C@@H]1C(O)N(c2cc(C(C)(C)C)on2)C(=O)N1C (single isomer, unassigned) [Example A2] | 3 | 3 | 5 | 5 | 5 | 4 | 3 | 5 | 4 | 4 | 5 | 5 | 5 | 5 | 5 | 5 |  | 5 | 3 | 5 | ABUTH damage score (0-5) [1, 15]: 5; AMARE damage score (0-5) [2, 15]: 5; ECHCG damage score (0-5) [3, 15]: 4; SETFA damage score (0-5) (SETFA = Setaria faberi [5]; [15]): 1; ZEAMX damage score (0-5) (ZEAMX = Zea mays [6]; [15]): 2; ABUTH damage score (0-5) [7, 15]: 5; AMARE damage score (0-5) [8, 15]: 5; ECHCG damage score (0-5) [9, 15]: 5; SETFA damage score (0-5) (SETFA = Setaria faberi [11]; [15]): 5; ZEAMX damage score (0-5) (ZEAMX = Zea mays [12]; [15]): 4; ZEAMX damage score (0-5) (ZEAMX = Zea mays [12]; [13]): 5
CO[C@H]1C(O)N(c2cc(C(C)(C)C)on2)C(=O)N1C (stereo partly drawn) [A1 S-enantiomer, reference compound] | 0 | 0 | 5 | 5 | 0 | 0 | 0 | 0 | 0 | 0 | 0 | 2 | 5 | 5 | 1 | 1 | 0 | 1 | 0 | 1 | LOLPE damage score (0-5) (LOLPE [4]; 250 g/Ha): 0; SEFTA damage score (0-5) (SETFA = Setaria faberi [5]; 62.5 g/Ha): 0; SEFTA damage score (0-5) (SETFA = Setaria faberi [11]; 250 g/Ha): 2; ZEAMX damage score (0-5) (ZEAMX = Zea mays [12]; [13]): 1
COC[C@H]1C(O)N(c2cc(C(C)(C)C)on2)C(=O)N1C (stereo partly drawn) [A4 S-enantiomer, reference compound] | 0 | 0 | 1 | 3 | 0 | 0 | 0 | 0 | 0 | 0 | 0 | 0 | 0 | 2 | 0 | 1 | 0 | 0 | 0 | 0 | LOLPE damage score (0-5) (LOLPE [4]; 250 g/Ha): 0; SEFTA damage score (0-5) (SETFA = Setaria faberi [5]; 62.5 g/Ha): 0; SEFTA damage score (0-5) (SETFA = Setaria faberi [11]; 250 g/Ha): 0; ZEAMX damage score (0-5) (ZEAMX = Zea mays [12]; [13]): 0
